System: T1, FC rutinosidase
T1 construct: gene f3g; native, purified from dehulled seeds (Q-Sepharose, Superdex 200, Mono Q twice); 58,400 +/- 2700 Da by gel filtration; single isozyme in native-PAGE
Experiment: UPLC of released quercetin; Lineweaver-Burk
Assay type: biochemical, Fagopyrum cymosum
Conditions: 50 mM acetate-LiOH pH 5.0, 20% (v/v) methanol, 25 °C (standard assay)
From the text: UPLC of released quercetin; Lineweaver-Burk on FC rutinosidase

- Km: 367 ± 23.5 µM
SMILES: C[C@@H]1O[C@@H](OC[C@H]2O[C@@H](Oc3c(-c4ccc(O)c(O)c4)oc4cc(O)cc(O)c4c3=O)[C@H](O)[C@@H](O)[C@@H]2O)[C@H](O)[C@H](O)[C@H]1O [rutin]
